Laboratory results reported in PubChem BioAssay AID340 (DTP/NCI, 2004).
Where “and” joins values, the source holds several entries; their conditions need not be identical. Equal values may be shown once. Toxic doses and inconclusive results are not listed.

System: CD2F1 mice, ip reticulum cell sarcoma, survival T/C
Assay: NCI In Vivo Anticancer Drug Screen. Data for tumor model Reticulum Cell Sarcoma (Kelley Mouse) (intraperitoneal) in CD2F1 (CDF1) mice
Details: endpoint: median survival time, higher = longer survival
Procedure: The antitumor activity of compounds was measured in mice bearing transplantable tumors. Survival or tumor size were measured and the results are expressed as the measurement made in the treated group (T) divided by the measurement made in the vehicle treated control group (C). The tumor model used in this assay is Reticulum Cell Sarcoma (Kelley Mouse) (intraperitoneal) in CD2F1 (CDF1) mice

[1] = dose: 50.0 mg/kg/injection, schedule: Q01DX010 (ip), vehicle: saline
[2] = dose: 100.0 mg/kg/injection, schedule: Q01DX010 (ip), vehicle: saline
[3] = dose: 25.0 mg/kg/injection, schedule: Q01DX010 (ip), vehicle: saline
[4] = dose: 5.0 mg/kg/injection, schedule: Q01DX010 (ip), vehicle: saline
[5] = dose: 10.0 mg/kg/injection, schedule: Q01DX010 (ip), vehicle: saline
[6] = dose: 20.0 mg/kg/injection, schedule: Q01DX010 (ip), vehicle: saline
[7] = dose: 40.0 mg/kg/injection, schedule: Q01DX010 (ip), vehicle: saline
[8] = dose: 12.5 mg/kg/injection, schedule: Q01DX010 (sc), vehicle: steriod suspending solution
[9] = dose: 25.0 mg/kg/injection, schedule: Q01DX010 (sc), vehicle: steriod suspending solution
[10] = dose: 50.0 mg/kg/injection, schedule: Q01DX010 (sc), vehicle: steriod suspending solution
[11] = dose: 100.0 mg/kg/injection, schedule: Q01DX010 (sc), vehicle: steriod suspending solution
[12] = dose: 1.25 mg/kg/injection, schedule: Q01DX010 (ip), vehicle: saline
[13] = dose: 2.5 mg/kg/injection, schedule: Q01DX010 (ip), vehicle: saline
[14] = dose: 12.5 mg/kg/injection, schedule: Q01DX010 (ip), vehicle: saline
[15] = dose: 6.25 mg/kg/injection, schedule: Q01DX010 (ip), vehicle: saline

COc1cc(-c2ccc(Nc3ccccc3C(=O)O)c(OC)c2)ccc1Nc1ccccc1C(=O)O
T/C [1]: 105 % of control | T/C [2]: 100 % of control

C1CN1c1nc(N2CC2)nc(N2CC2)n1
T/C (dose: 0.13 mg/kg/injection, schedule: Q01DX010 (ip), vehicle: saline): 100 % of control | T/C (dose: 0.25 mg/kg/injection, schedule: Q01DX010 (ip), vehicle: saline): 100 % of control and 103 % of control | T/C (dose: 1.0 mg/kg/injection, schedule: Q01DX010 (ip), vehicle: saline): 123 % of control

O=[n+]1c2c(n([O-])c3ccccc31)-c1cccc3cccc-2c13
T/C [3]: 92 % of control and 100 % of control | T/C [1]: 92 % of control and 106 % of control | T/C [2]: 100 % of control and 103 % of control | T/C (dose: 200.0 mg/kg/injection, schedule: Q01DX010 (ip), vehicle: saline): 92 % of control and 100 % of control

Cc1cc(N(CCCl)CCCl)ccc1N=Nc1ccccc1C(=O)O
T/C [4]: 100 % of control | T/C [5]: 103 % of control | T/C [6]: 113 % of control and 122 % of control | T/C [7]: 106 % of control

CC/C(=C(/CC)c1ccc(O)cc1)c1ccc(O)cc1
T/C [8]: 105 % of control and 110 % of control | T/C [9]: 105 % of control | T/C [10]: 100 % of control and 110 % of control | T/C [11]: 105 % of control and 115 % of control

O=C(O)c1[nH]c(=O)[nH]c(=O)c1F
T/C [12]: 91 % of control | T/C [13]: 94 % of control | T/C [4]: 97 % of control and 100 % of control | T/C [5]: 94 % of control and 100 % of control

Nc1nc(=S)c2[nH]cnc2[nH]1
T/C [12]: 150 % of control and 170 % of control | T/C [4]: 105 % of control and 120 % of control | T/C [5]: 105 % of control and 108 % of control

Nc1ncnc2[nH]ncc12
T/C (dose: 1.5 mg/kg/injection, schedule: Q01DX010 (ip), vehicle: saline): 100 % of control and 107 % of control | T/C (dose: 3.0 mg/kg/injection, schedule: Q01DX010 (ip), vehicle: saline): 100 % of control and 110 % of control | T/C (dose: 6.0 mg/kg/injection, schedule: Q01DX010 (ip), vehicle: saline): 105 % of control and 110 % of control | T/C (dose: 12.0 mg/kg/injection, schedule: Q01DX010 (ip), vehicle: saline): 97 % of control and 100 % of control

C[C@]12C=CC(=O)C=C1CC[C@@H]1[C@@H]2[C@@H](O)C[C@@]2(C)[C@H]1CC[C@]2(O)C(=O)CO
T/C [8]: 97 % of control and 100 % of control | T/C [9]: 94 % of control and 100 % of control | T/C [10]: 94 % of control and 97 % of control | T/C [11]: 94 % of control and 100 % of control

CS(=O)(=O)OCCC(=O)N1CCN(C(=O)CCOS(C)(=O)=O)CC1
T/C [14]: 111 % of control and 114 % of control | T/C [1]: 114 % of control | T/C [2]: 114 % of control

CCOC(N)=O
T/C (dose: 125.0 mg/kg/injection, schedule: Q01DX010 (ip), vehicle: saline): 102 % of control | T/C (dose: 250.0 mg/kg/injection, schedule: Q01DX010 (ip), vehicle: saline): 97 % of control and 102 % of control | T/C (dose: 500.0 mg/kg/injection, schedule: Q01DX010 (ip), vehicle: saline): 100 % of control and 102 % of control | T/C (dose: 1000.0 mg/kg/injection, schedule: Q01DX010 (ip), vehicle: saline): 88 % of control and 100 % of control

Oc1cc(CN(CCCl)CCCl)c(O)cc1CN(CCCl)CCCl
T/C (dose: 0.63 mg/kg/injection, schedule: Q01DX010 (ip), vehicle: saline): 100 % of control | T/C [12]: 100 % of control | T/C [13]: 106 % of control | T/C [4]: 100 % of control

CN(C)c1ccc(Nc2c3ccccc3nc3ccccc23)cc1
T/C (dose: 54.0 mg/kg/injection, schedule: Q01DX010 (ip), vehicle: saline): 159 % of control and 183 % of control | T/C (dose: 80.0 mg/kg/injection, schedule: Q01DX010 (ip), vehicle: saline): 183 % of control and 187 % of control | T/C (dose: 120.0 mg/kg/injection, schedule: Q01DX010 (ip), vehicle: saline): 86 % of control

C[C@@H]1C[C@@H]([C@H](O)CC2CC(=O)NC(=O)C2)C(=O)[C@@H](C)C1
T/C [4]: 97 % of control and 100 % of control | T/C [5]: 105 % of control and 108 % of control | T/C [6]: 120 % of control | T/C [7]: 105 % of control

N=[N+]=CC(=O)OCC(N)C(=O)O (centres undefined)
T/C (dose: 3.13 mg/kg/injection, schedule: Q01DX010 (ip), vehicle: saline): 106 % of control | T/C [15]: 113 % of control | T/C [14]: 120 % of control | T/C [3]: 116 % of control

O=NN(CCCl)C(=O)NCCCl
T/C [15]: 194 % of control and 200 % of control | T/C [14]: 97 % of control and 110 % of control

O=c1[nH]c(=O)n(C2CC(O)C(CO)O2)cc1F (centres undefined)
T/C [4]: 156 % of control | T/C [6]: 171 % of control | T/C [7]: 187 % of control
